The values below come from PMC5843810, “18th European Symposium on Radiopharmacy and Radiopharmaceuticals” (EJNMMI Radiopharmacy and Chemistry, 2016).

Like-named read-outs stand apart in the source and are kept apart here.

Data set [1] concerns the target prostacyclin receptor (IPR) (Homo sapiens, UniProt P43119). The data set is described as follows: Affinity for prostacyclin receptor (IPR). It counts as binding.
Description: This concept was applied to the development of a prostacyclin receptor (IPR) tracer.
Data set [2] is described as follows: CHI(IAM) non-specific binding measurement. The conditions noted are these: experimental non-specific binding measurement. It counts as physicochemical. The source says: Materials and methods: Similarly to the Ligand Efficiency (LE) index, we explored the usefulness of the Ligand Specific Efficiency index (LSE), which we defined as the ratio between affinity (expressed as e.g. pIC50 or pKd), and the logarithmic value of the experimental non-specific binding measurement, CHI(IAM).^[Jiang] LSE provides a measure of affinity, normalized to non-specific binding.

Data set [3] is described as follows: PET/CT imaging in nude mice bearing U87MG xenograft tumor. It counts as in vivo. The following applies: mouse, 90 min post injection. On the procedure: Materials and methods: The PET imaging properties of [^68Ga]FSC(succ-RGD)3 were studied in nude mice bearing M21 human melanoma xenografts and human glioblastoma U87MG xenograft tumor. A parallel PET imaging of ^68GaNODAGA-RGD in same mouse bearing U87MG xenograft tumor was performed as a comparison.

A short description of data set [4]: in vivo. The conditions noted are these: C57BL/6, mouse, αvβ3-positive melanoma tumor, iv, total radioactivity. On the procedure:
Materials and methods: cRGDfK was functionalized with N3CH2COOH and N3PEG7COOH at ε-amino group of lysine. […] Biodistribution study of the two radiotracers was carried out in C57BL/6 mice bearing αvβ3-positive melanoma tumors. The radioactive preparation (~3.7 MBq/animal, 100 μL) was injected intravenously through the lateral tail vein. At different time intervals after injection (30, 60, and 180 min), the animals (n = 4/time point) were sacrificed and the relevant organs excised for measurement of retained activity.

For data set [5] the following is noted: over 6 h, analytical HPLC. On the procedure:
(§1) Materials and methods: [^18F]MEL050 was synthesized using a one-step bromine-for-fluorine nucleophilic heteroaromatic substitution. Briefly, [^18F]MEL050 was prepared from a bromo-precursor, using no-carrier-added 18F-KF-Kryptofix 222 (dimethylformamide, 150°C, 6 min), followed by preparative HPLC purification (C18 column (300x7.8 mm, 7 μm), isocratic elution with acetonitrile/20 mM ammonium bicarbonate (20:80, v/v), 3.0 ml/min) and cartridge-reformulation (Sep-Pak® Plus C18 environmental) of the collected fraction. Radiochemical and chemical purity, stability and specific activity measurements were monitored using analytical HPLC. Chemical identity of the labeled compound [^18F]MEL050 was assessed by co-injection with non-radioactive standard MEL050. Experimental model of pulmonary metastatic melanoma was obtained by IV injection of B16-F10 cells in NMRI mice. Mice (n=8) were imaged 15 days after inoculation, using INVEON microPET/CT device (Siemens), after IV injection of 0.36±0.04MBq/g of [^18F]MEL050. Dynamic and static acquisitions were acquired from time of injection to 2h after tracer injection. The maximum percentage of [^18F]MEL050 Injected Dose per g of lung tissue (%ID/g Max) was determined using ROIs manually drawn on 1h-post injection PET images, and correlated to ex-vivo findings.

The subject of data set [6] is B16-F10 pulmonary metastatic melanoma. The following applies: NMRI mice, B16-F10 lung metastases, 1h-post injection PET, n=8. On the procedure: as §1
The format of data set [7] is in vivo. The following applies: healthy mice, 2 min. The source says: (§2) Materials and methods: All the chemicals and reagents used in the experiments were obtained from commercial sources and used without any further purification. Synthesis of 5-cyano-N-(4-(4-methylpiperazine-1-yl)-2-(4-methylpiperidin-1-yl)phenyl)furan-2-carboxamide and 5-cyano-N-(2-(4-methylpiperidine-1-yl)-4-(piperazine-1-yl)phenyl)furan-2-carboxamide molecules were done according to literature methods available with slight modifications for radiolabeling experiments^3. The [^11C]-methyl triflate reacts with the precursor in presence of a base at room temperature for 2 minutes gives the carbon-11 radiolabeled [^11C]BA-1 which was purified by using semi-preparative reversed-phase high pressure liquid chromatography (RP-HPLC). The peak corresponding the reference compound will be collected and checked for the purity using analytical RP-HPLC. Baseline biodistribution study was performed at 2, 10, 30 and 60 min. respectively. Blocking experiment (10 mg/kg cold compound) was performed at 30 min time point in healthy female adult mice n=3 and compared with vehicle treated batch. In vitro autoradiography experiments were carried on rat brain slices by incubating tracer and cold blocking solution. MicroPET imaging studies were performed on a Focus™ 220 microPET scanner with female rats.

The target of data set [8] is T1, CSF-1R (Rattus norvegicus, UniProt Q00495).
T1 construct: from tissue; host or cells: living female rats (brain)
T1 sequence (Q00495 20-978): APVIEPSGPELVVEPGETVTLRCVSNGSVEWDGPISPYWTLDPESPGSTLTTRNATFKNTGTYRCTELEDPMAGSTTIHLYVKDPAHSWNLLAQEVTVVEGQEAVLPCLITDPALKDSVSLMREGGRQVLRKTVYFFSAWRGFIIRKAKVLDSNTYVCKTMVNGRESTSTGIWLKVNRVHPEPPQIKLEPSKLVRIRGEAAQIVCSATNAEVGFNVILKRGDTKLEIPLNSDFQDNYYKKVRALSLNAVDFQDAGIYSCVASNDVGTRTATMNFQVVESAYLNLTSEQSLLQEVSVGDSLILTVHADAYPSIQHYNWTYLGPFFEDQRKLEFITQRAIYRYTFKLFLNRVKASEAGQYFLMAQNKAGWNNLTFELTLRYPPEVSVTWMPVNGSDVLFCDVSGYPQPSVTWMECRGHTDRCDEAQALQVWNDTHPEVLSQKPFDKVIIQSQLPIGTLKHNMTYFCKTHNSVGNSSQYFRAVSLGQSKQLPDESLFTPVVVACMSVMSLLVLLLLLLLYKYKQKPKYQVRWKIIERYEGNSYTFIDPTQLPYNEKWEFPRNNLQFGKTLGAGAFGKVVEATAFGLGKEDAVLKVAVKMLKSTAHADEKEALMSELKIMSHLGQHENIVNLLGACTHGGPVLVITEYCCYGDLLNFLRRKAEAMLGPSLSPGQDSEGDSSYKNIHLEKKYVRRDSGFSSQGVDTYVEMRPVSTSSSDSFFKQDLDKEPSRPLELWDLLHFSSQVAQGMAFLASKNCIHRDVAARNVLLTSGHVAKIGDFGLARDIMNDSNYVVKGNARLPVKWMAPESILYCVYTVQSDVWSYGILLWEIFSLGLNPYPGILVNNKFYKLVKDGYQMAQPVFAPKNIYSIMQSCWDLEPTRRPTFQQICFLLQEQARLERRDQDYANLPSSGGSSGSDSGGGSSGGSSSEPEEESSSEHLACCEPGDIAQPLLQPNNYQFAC
It counts as in vivo. The following applies: female rats.
Description: as §2

Data set [9] addresses MCHR1 (Rattus norvegicus, UniProt P97639). The following applies: rats, n=3. As to the method: Materials and methods: In vivo experiments were conducted in naïve male Sprague Dawley rats. For small-animal PET/CT/MR experiments, rats were anesthetized by isoflurane. 25min after [^18F]FE@SNAP iv injection (47.8±1MBq; SA: 19.7±6GBq/μmol), vehicle (baseline group, n=3) or 15mg/kg SNAP-7941 (blocking group, n=3) were administered through the tail vein. 75min after tracer injection, the rats were sacrificed. Radioactivity concentrations in brain were calculated and expressed as SUVs. In another set of experiments, [^18F]FE@SNAP (51.3±26MBq; SA: 36.1±28GBq/μmol) as well as vehicle (baseline group, n=3) or 15mg/kg SNAP-7941 (blocking group, n=3) were injected into conscious freely moving rats via a permanent catheter implanted into the jugular vein, thus excluding an influence of anaesthesia. 45min after tracer application, rats were sacrificed, the brain was removed and cut for ex vivo autoradiography. Subsequently, brain slices were put on Phosphor Imager plates for exposure and analyzed with a Cyclone Phosphor Imager the following day. Regions of interest (ROIs) were drawn for the hypothalamic region, the ventricle and a non-target region.

Data set [10] has as its target T2, PSMA (Homo sapiens, UniProt Q04609).
T2 construct: endogenous in cells; host or cells: LNCaP
The data set is described as follows: Competitive binding assay on PSMA-positive LNCaP cells against 68Ga-PSMA-10. The following applies: against 68Ga-PSMA-10, cold reference compounds. On the procedure:
(§3) Materials and methods: The PSMA binding motif Glu-NH-CO-NH-Lys was synthesized by a well-established method (4) using solid phase chemistry and subsequently an amino acid linker was built up by fmoc-based solid phase peptide synthesis (SPPS). The non-radioactive reference compounds were also prepared analogically and eventually conjugated by 6-fluoronicotinic acid. After separation from the resin and deprotection the peptidomimetics were labeled using the TFP-ester of 6-[^18F]fluoronicotinic acid as prosthetic group. The Ki values of all compounds were determined by competitive binding assays on PSMA-positive LNCaP cells against ^68Ga-PSMA-10 (5) using the respective cold reference compounds. Additionally, the cellular internalization of the radiofluorinated ligands was determined.

In data set [11] the test system is LNCaP cells. The data set is described as follows: Cellular internalization of radiofluorinated PSMA ligands. Type of data set: cell-based. The conditions noted are these: in vitro. On the procedure: as §3
The subject of data set [12] is U-87 MG and SKOV-3 tumours. The conditions noted are these: 1 h after injection. As to the method:
The in vitro binding characteristics of FPyPEGCBT-c(RGDfK) were analysed by standard binding assay in U-87 MG and SKOV-3 cancer models and its selectivity towards integrins by siRNA depletions. Its preclinical potential was studied in mice bearing subcutaneous tumours by ex vivo biodistribution studies and in vivo microPET/CT imaging.

Chain of MCHR1 (P97639 whole entry): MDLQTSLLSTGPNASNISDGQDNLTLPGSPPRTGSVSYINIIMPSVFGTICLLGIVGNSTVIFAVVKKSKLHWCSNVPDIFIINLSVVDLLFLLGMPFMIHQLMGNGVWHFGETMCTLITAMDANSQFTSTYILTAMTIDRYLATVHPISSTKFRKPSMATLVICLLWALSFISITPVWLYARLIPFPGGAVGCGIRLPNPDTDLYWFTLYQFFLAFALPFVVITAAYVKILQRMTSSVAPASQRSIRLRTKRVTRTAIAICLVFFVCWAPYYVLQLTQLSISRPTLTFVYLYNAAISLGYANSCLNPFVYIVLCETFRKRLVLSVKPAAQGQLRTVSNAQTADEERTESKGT
Chain of prostacyclin receptor (IPR) (P43119 whole entry, species assumed): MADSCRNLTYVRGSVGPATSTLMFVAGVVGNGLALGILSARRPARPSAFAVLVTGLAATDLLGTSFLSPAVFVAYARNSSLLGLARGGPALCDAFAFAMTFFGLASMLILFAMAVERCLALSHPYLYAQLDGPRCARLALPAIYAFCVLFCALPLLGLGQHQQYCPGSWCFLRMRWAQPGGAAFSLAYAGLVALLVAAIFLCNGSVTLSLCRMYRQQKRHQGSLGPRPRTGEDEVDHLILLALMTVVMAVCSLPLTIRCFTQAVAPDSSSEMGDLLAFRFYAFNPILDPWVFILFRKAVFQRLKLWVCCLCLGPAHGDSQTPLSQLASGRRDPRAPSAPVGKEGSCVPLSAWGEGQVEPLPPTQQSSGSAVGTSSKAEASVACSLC
T2 sequence (Q04609 whole entry): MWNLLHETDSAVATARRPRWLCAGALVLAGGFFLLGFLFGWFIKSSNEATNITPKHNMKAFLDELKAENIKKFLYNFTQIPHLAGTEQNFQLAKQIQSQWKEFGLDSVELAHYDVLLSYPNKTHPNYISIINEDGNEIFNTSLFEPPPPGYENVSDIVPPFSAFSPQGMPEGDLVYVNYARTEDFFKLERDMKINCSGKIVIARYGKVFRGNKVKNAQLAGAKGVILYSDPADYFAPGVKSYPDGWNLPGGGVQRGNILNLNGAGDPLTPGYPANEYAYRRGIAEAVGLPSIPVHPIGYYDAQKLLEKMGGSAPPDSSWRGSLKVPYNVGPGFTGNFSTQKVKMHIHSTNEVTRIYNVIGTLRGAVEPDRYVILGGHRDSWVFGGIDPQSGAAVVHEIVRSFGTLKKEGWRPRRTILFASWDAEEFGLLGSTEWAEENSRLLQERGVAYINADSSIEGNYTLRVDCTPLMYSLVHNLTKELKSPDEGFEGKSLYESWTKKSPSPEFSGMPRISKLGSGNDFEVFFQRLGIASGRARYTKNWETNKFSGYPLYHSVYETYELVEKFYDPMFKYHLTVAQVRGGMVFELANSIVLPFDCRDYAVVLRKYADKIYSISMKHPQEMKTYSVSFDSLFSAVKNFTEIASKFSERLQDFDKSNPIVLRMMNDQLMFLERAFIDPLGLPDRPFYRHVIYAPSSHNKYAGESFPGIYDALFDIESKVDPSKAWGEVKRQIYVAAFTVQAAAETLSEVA

A word on the Ki: it is the dissociation constant of the complex between target and ligand, obtained from inhibition or displacement. In data set [1], `CC(C)Oc1ccc(Cc2ccc(NC3=NCCN3)cc2)cc1.Cl` [Ro1138452] had an inhibitory constant (Ki) of 0.23 nM. In addition, the “CHI(IAM)” value in [2] amounted to 58.

Consider `C/C1=C/C(=O)N(O)CCC[C@H](NC(=O)CCC(=O)NCCCC[C@@H]2NC(=O)[C@@H](Cc3ccccc3)NC(=O)[C@H](CC(=O)O)NC(=O)CNC(=O)[C@H](CCCNC(=N)N)NC2=O)C(=O)OCC/C(C)=C\C(=O)N(O)CCC[C@H](NC(=O)CCC(=O)NCCCC[C@@H]2NC(=O)[C@@H](Cc3ccccc3)NC(=O)[C@H](CC(=O)O)NC(=O)CNC(=O)[C@H](CCCNC(=N)N)NC2=O)C(=O)OCC/C(C)=C\C(=O)N(O)CCC[C@H](NC(=O)CCC(=O)NCCCC[C@@H]2NC(=O)[C@@H](Cc3ccccc3)NC(=O)[C@H](CC(=O)O)NC(=O)CNC(=O)[C@H](CCCNC(=N)N)NC2=O)C(=O)OCC1` [[68Ga]FSC(succ-RGD)3, metal not drawn], for which the tissue to tissue ratio at […] in data set [3] (tumour and kidneys, read-out: tumor/kidneys ratio) was 1.3; in data set [3] (tumour and muscle, read-out: tumor/muscle ratio) it was 4.9.

Usually tissue uptake stands for the percentage of the injected dose found per gram of tissue. `N=C(N)NCCC[C@@H]1NC(=O)[C@H](CCCCNC(=O)Cn2cc(C[C@H](N)C(=O)O)nn2)NC(=O)[C@@H](Cc2ccccc2)NC(=O)[C@H](CC(=O)O)NC(=O)CNC1=O` [99mTc(CO)3-Pra-Tz-CH2-cRGDfK, metal not drawn]: the tissue uptake at 0.5 h in data set [4] is 3.01 ± 0.77 %ID/g.

As for `CCN(CC)CCNC(=O)c1ccc([18F])nc1` [[18F]MEL050], the “product stability (RCP)” value in data set [5] is reported as more than 98%. Also, the “%ID/g Max in lung tumours” value in data set [6] is 4.7±2.6%.

Regarding `CC1CCN(c2cc(N3CCN(C)CC3)ccc2NC(=O)c2ccc(C#N)o2)CC1` [[11C]-BA1, 5-cyano-N-(4-(4-methylpiperazine-1-yl)-2-(4-methylpiperidin-1-yl)phenyl)furan-2-carboxamide], in [7], the lung uptake was 14 % ID and the “tracer uptake into the brain” value is 4 % ID. Also, in [8] (baseline microPET), the “brain SUV, baseline” value is given as 1.2 SUV. Besides, in data set [8] (blocking with cold compound), the “brain SUV, with blocking” value was 2 SUV.

Regarding `COCC1=C(C(=O)OCC[18F])C(c2ccc(F)c(F)c2)N(C(=O)NCCCN2CCC(c3cccc(NC(C)=O)c3)CC2)C(=O)N1` (stereo not drawn) [[18F]FE@SNAP], the “SUV in the ventricular system, blocking group” value in data set [9] (15mg/kg SNAP-7941 25min after tracer) came to 0.34±0.07 SUV. Moreover, the “SUV in the ventricular system, baseline group” value in [9] (vehicle 25min after tracer) is 0.73±0.11 SUV.

As for `N=C(N)NCCC[C@@H]1NC(=O)[C@H](CCCCNC(=O)CCOCCOCCOCCOCCOCCOCCOCCn2cc(C[C@H](N)C(=O)O)nn2)NC(=O)[C@@H](Cc2ccccc2)NC(=O)[C@H](CC(=O)O)NC(=O)CNC1=O` [99mTc(CO)3-Pra-Tz-PEG7-cRGDfK, metal not drawn], the tissue uptake at 0.5 h in data set [4] came out at 4.11 ± 0.51 %ID/g.

In turn, PSMA-1007 registered an inhibition constant (Ki) in data set [10] of 6 nM. For the same molecule, the internalization ratio entry in data set [11] is on record as “about 70%”.

On to [18F]FPyPEGCBT-c(RGDfK) (head to tail), for which, in [12], the “tumour uptake, SKOV-3” value was determined as 2.4 %ID/g and the “tumour uptake, U-87 MG” value was determined as 2.9 %ID/g.
